These results are taken from US5436229A, “Bisulfite adducts of arginine aldehydes” (Eli Lilly and Company, priority 1994, dated 1995).

Non-standard residues stand in square brackets, D forms with d. Residues, ends and D or L forms follow the SMILES beside them. ξ: configuration not given here. dPip = O=C(O)[C@H]1CCCCN1; ξAze = O=C(O)C1CCN1

Data set [1] has as its target human thrombin (Homo sapiens, UniProt P00734). As to the kind of experiment: Thrombin amidase inhibition (Kass), chromogenic substrate. It is filed as biochemical. The essentials:
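Kass, in liter per mole, was averaged over several compound concentrations, using free thrombin from a rate standard curve and free inhibitor as added minus bound. Hydrolysis of chromogenic substrate (0.25 mg/ml solution) was monitored at 405 nm with human thrombin (8 NIH units/ml solution) in Tris-NaCl buffer pH 7.4, compound in 50% aqueous methanol.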

The target in data set [2] is T1, factor Xa (Homo sapiens, UniProt P00742).
T1 construct: Human factors X, Xa, IXa, XIa, and XIIa are purchased from Enzyme Research Laboratories; purchased Enzyme Research Laboratories, South Bend, Ind
T1 sequence (P00742 235-488 limits assumed): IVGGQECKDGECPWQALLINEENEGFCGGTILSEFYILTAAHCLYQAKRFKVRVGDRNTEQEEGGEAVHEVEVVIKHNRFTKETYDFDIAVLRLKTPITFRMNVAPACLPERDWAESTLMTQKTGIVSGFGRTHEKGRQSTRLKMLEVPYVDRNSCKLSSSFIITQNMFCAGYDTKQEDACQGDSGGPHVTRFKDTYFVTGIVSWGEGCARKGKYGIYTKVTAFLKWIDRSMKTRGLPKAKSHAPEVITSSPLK
T1 sequence (P00742 41-179 partner limits assumed): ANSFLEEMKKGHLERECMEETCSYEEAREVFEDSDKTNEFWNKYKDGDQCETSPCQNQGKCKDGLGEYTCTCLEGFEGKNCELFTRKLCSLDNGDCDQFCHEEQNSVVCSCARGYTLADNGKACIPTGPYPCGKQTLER
As to the kind of experiment: Serine protease inhibition (Kass), factor Xa. It counts as biochemical. The essentials:
(§1)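 Chromogenic p-nitroanilide substrate assays run as for human thrombin; trypsin with N-Benzoyl-Phe-Val-Arg-p-nitroanilide, human factor Xa with N-Benzoyl-Ile-Glu-Gly-Arg-p-nitroanilide. Values are association constants (Kass).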

Data set [3] has as its target T2, Bovine trypsin (Bos taurus, UniProt P00760).
T2 construct: Bovine trypsin is purchased from Worthington Biochemicals; purchased Worthington Biochemicals, Freehold, N.J
T2 sequence (P00760 24-246): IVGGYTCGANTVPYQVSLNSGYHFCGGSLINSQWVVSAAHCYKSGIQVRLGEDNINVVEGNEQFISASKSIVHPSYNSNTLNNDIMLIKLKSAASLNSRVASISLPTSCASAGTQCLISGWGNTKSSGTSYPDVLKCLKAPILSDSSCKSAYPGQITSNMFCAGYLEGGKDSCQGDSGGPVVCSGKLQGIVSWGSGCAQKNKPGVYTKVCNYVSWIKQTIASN
Kind of data set: Serine protease inhibition (Kass), trypsin. It counts as biochemical. A digest of the protocol: as §1

In data set [4] the target is T3, Human plasmin (Homo sapiens, UniProt P00747).
T3 construct: Human plasmin is purchased from Boehringer Mannheim; purchased Boehringer Mannheim, Indianapolis, Ind
T3 sequence (P00747 581-810 limits assumed): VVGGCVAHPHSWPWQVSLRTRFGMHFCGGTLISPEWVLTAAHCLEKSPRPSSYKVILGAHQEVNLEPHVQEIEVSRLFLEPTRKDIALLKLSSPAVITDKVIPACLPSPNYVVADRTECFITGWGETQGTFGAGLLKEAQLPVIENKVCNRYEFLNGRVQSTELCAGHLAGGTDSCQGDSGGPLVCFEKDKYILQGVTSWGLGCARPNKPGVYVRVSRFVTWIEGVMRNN
T3 sequence (P00747 97-580 partner limits assumed): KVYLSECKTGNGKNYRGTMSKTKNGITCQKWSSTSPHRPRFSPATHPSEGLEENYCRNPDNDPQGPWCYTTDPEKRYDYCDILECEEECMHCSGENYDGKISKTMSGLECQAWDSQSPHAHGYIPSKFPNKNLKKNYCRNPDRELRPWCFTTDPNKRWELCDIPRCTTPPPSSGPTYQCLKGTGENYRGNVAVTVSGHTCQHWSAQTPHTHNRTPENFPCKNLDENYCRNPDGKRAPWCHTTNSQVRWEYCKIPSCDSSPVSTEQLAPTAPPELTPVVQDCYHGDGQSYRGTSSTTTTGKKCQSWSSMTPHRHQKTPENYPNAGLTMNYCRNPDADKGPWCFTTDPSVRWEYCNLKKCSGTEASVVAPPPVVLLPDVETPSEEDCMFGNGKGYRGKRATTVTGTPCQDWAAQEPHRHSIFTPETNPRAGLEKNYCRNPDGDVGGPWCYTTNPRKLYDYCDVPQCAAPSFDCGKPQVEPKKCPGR
As to the kind of experiment: Serine protease inhibition (Kass), plasmin. It is filed as biochemical. The essentials: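 Kass values come from the thrombin chromogenic procedure applied to fibrinolytic proteases. t-PA (nt-PA single chain, or mt-PA6) paired with substrate H-D-Ile-Pro-Arg-p-nitroanilide; human plasmin paired with H-D-Val-Leu-Lys-p-nitroanilide.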

Data set [5] has as its target T4, tissue plasminogen activator (t-PA) (Homo sapiens, UniProt P00750).
T4 construct: purchased American Diagnostica, Greenwich, Conn
Kind of data set: Serine protease inhibition (Kass), t-PA. It is filed as biochemical.

Data set [6] has as its system human plasma. Kind of data set: Human plasma anticoagulation, thrombin time (TT). It is filed as biochemical. A digest of the protocol: (§2)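 Compounds added across a wide concentration range to human plasma; APTT, PT and TT clotting times measured on a coagulation instrument, bovine thrombin used for plasma assays. Concentration doubling clotting time estimated by linear extrapolation.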

For data set [7], the system named is human plasma. As to the kind of experiment: Human plasma anticoagulation, activated partial thromboplastin time (APTT). It counts as biochemical. The essentials: as §2
The subject of data set [8] is human plasma. As to the kind of experiment: Human plasma anticoagulation, prothrombin time (PT). It counts as biochemical. A digest of the protocol: as §2
A short description of data set [9]: Index of Bioavailability (plasma TT AUC, oral vs i.v.). It counts as in vivo. Conditions: rats, oral vs i.v. bolus. The source says:
Assays are done in duplicate and averaged.
Each sample population represents alternating sequential time points.

T4 sequence (P00750 36-562): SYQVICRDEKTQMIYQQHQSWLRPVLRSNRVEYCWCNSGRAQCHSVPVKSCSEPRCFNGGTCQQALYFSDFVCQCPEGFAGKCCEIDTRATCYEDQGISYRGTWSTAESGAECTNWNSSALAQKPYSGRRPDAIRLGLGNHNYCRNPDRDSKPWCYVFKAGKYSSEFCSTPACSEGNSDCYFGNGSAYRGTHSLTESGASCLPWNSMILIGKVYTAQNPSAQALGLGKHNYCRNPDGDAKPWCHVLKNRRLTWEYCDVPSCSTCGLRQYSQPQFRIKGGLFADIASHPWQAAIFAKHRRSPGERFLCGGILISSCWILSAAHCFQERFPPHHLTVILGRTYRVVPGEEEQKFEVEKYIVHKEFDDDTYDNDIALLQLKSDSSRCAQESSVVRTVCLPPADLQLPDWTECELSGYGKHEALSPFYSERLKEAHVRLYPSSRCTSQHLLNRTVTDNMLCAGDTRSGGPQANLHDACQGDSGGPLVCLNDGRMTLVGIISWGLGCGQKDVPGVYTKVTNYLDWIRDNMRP

For the compound `CN(C)S(=O)(=O)N[C@H](Cc1ccccc1)C(=O)N1CCC[C@H]1C(=O)N[C@H](C=O)CCCNC(=N)N.Cl` [Example 56, N-(dimethylaminosulfonyl)-D-phenylalanyl-L-Prolinyl-L-Arginine Aldehyde Hydrochloride], the “Kass Human Thrombin” value in data set [1] was found to be 300 L/mol × 10^6. In addition, the “Kass Xa” value in data set [2] was 3.9 L/mol × 10^6. The “Kass Trypsin” value in [3] is listed as 160 L/mol × 10^6. The “Kass Plasmin” value in data set [4] stood at 21 L/mol × 10^6. Moreover, the inhibition at 13 µg/mL in data set [5] (at 13 μg/mL, read-out: inhib. of t-PA) is 100%. Also, the “2 × Clotting time TT” value in [6] was found to be 46 ng/mL. Also, the “2 × Clotting time APTT” value in data set [7] worked out at 360 ng/mL. Also, the “2 × Clotting time PT” value in data set [8] was 480 ng/mL. Moreover, the “Percent Relative Activity (Index of Bioavailability)” value in [9] is reported as 26%.

Turning to `CN[C@@H](C(=O)N1CCC[C@H]1C(=O)N[C@@H](CCCNC(=N)N)C(O)S(=O)(=O)[O-])c1ccccc1.O=S(=O)(O)O.[Na+]` (stereo partly drawn) [Example 79, N-methyl-D-phenylglycinyl-L-prolinyl-NH-CH[(CH2)3 NH-C(NH)-NH2]-C(OH)SO3 Na.H2 SO4], the “Kass Human Thrombin” value in data set [1] turned out to be 239 L/mol × 10^6. For the same compound, the “Kass Trypsin” value in data set [3] is recorded as 84 L/mol × 10^6. The “Kass Plasmin” value in data set [4] turned out to be 1.8 L/mol × 10^6. The “Kass t-PA” value in data set [5] came out at 0.01 L/mol × 10^6. Besides, the “Percent Relative Activity (Index of Bioavailability)” value in data set [9] was found to be 21%.

Regarding `N=C(N)NCCC[C@H](NC(=O)[C@@H]1CCCN1C(=O)C1CC2CCCCC2CN1)C(O)S(=O)(=O)[O-].O=S(=O)(O)O.[Na+]` (stereo partly drawn) [Example 80, D-1,2,3,4,4a,6,7,8,8a-Perhydroisoquinolin-3-yl carbonyl-L-prolinyl-L-arginine aldehyde bisulfite sulfate], the “Kass Human Thrombin” value in [1] was 62 L/mol × 10^6. The “Kass Trypsin” value in [3] was 137 L/mol × 10^6. In addition, the “Kass Plasmin” value in data set [4] came out at 2.7 L/mol × 10^6. In data set [5], the “Kass t-PA” value was determined as 0.01 L/mol × 10^6. Further, the “Percent Relative Activity (Index of Bioavailability)” value in [9] came out at 57%.

On to `Cl.N=C(N)NCCC[C@@H](C=O)NC(=O)[C@@H]1CCCN1C(=O)[C@@H](Cc1ccccc1)NS(=O)(=O)c1ccc(C(=O)O)cc1` [Example 62, N-(4-carboxyphenylsulfonyl)-D-phenylalanyl-L-Prolinyl-L-Arginine Aldehyde Hydrochloride], for which the “Kass Human Thrombin” value in [1] stood at 70 L/mol × 10^6. In addition, the “Kass Xa” value in data set [2] turned out to be 2.0 L/mol × 10^6. Besides, the “Kass Trypsin” value in [3] is 43 L/mol × 10^6. In addition, the “Kass Plasmin” value in data set [4] was found to be 7.0 L/mol × 10^6. Also, the “Kass t-PA” value in data set [5] came out at 1.1 L/mol × 10^6. The “2 × Clotting time TT” value in data set [6] was 120 ng/mL. Besides, the “2 × Clotting time APTT” value in data set [7] was 1,200 ng/mL. Moreover, in data set [8], the “2 × Clotting time PT” value was 3,000 ng/mL. Moreover, the “Percent Relative Activity (Index of Bioavailability)” value in data set [9] is reported as 13%.

Take `CCOC(=O)N[C@H](Cc1ccccc1)C(=O)N1CCC[C@H]1C(=O)N[C@H](C=O)CCCNC(=N)N.Cl` [Example 77, N-(ethoxycarbonyl)-D-phenylalanyl-L-Prolinyl-L-Arginine Aldehyde Hydrochloride]: the “Kass Human Thrombin” value in data set [1] is 170 L/mol × 10^6. Also, in data set [2], the “Kass Xa” value turned out to be 2.3 L/mol × 10^6. The “Kass Trypsin” value in [3] was determined as 240 L/mol × 10^6. In addition, the “Kass Plasmin” value in [4] was found to be 16 L/mol × 10^6. Also, in data set [5], the “Kass t-PA” value is on record as 2.5 L/mol × 10^6. In addition, the “2 × Clotting time TT” value in data set [6] is reported as 22 ng/mL. Also, the “2 × Clotting time APTT” value in data set [7] came out at 390 ng/mL. For the same compound, the “2 × Clotting time PT” value in data set [8] was 2,000 ng/mL. The “Percent Relative Activity (Index of Bioavailability)” value in [9] was found to be 14%.

In the case of `Cl.N=C(N)NCCC[C@@H](C=O)NC(=O)[C@@H]1CCCN1C(=O)[C@@H](Cc1ccccc1)NC(=O)c1cc2ccccc2cn1` [Example 46, N-(isoquinolinyl-2-carbonyl)-D-phenylalanyl-L-Prolinyl-L-Arginine Aldehyde Hydrochloride], the “Kass Human Thrombin” value in [1] is 110 L/mol × 10^6. Moreover, the “Kass Xa” value in [2] stood at 0.16 L/mol × 10^6. Besides, the “Kass Trypsin” value in [3] worked out at 22 L/mol × 10^6. Moreover, the “Kass Plasmin” value in data set [4] is given as 0.55 L/mol × 10^6. The “Kass t-PA” value in data set [5] is given as 0.32 L/mol × 10^6. Further, the “2 × Clotting time TT” value in [6] stood at 35 ng/mL. Also, the “2 × Clotting time APTT” value in data set [7] was 1,100 ng/mL. Moreover, the “2 × Clotting time PT” value in data set [8] is recorded as 1,400 ng/mL. The “Percent Relative Activity (Index of Bioavailability)” value in data set [9] stood at 1%.

For `Cl.Cl.N=C(N)NCCC[C@@H](C=O)NC(=O)[C@@H]1CCCN1C(=O)C1NCCCC2CCCCC21` (mixture of isomers) [Example 8, DL-cis-3-aza-bicyclo[5.4.0]undecanyl-2-carbonyl-L-prolinyl-L-arginine aldehyde dihydrochloride], the “Kass Human Thrombin” value in data set [1] was found to be 595 L/mol × 10^6. Further, the “Percent Relative Activity (Index of Bioavailability)” value in data set [9] is 43%.

For “D-Prolinyl-L-Prolinyl-L-Arginine Aldehyde Dihydrochloride [Example 2]”, the “Kass Human Thrombin” value in data set [1] stood at 12 L/mol × 10^6. Besides, in data set [9], the “Percent Relative Activity (Index of Bioavailability)” value worked out at 36%.

As to `Cl.Cl.N=C(N)NCCC[C@@H](C=O)NC(=O)C1CCN1C(=O)[C@H]1CCCCN1` (stereo partly drawn) [Example 3, D-Homoprolinyl-L-Azetidinyl-L-Arginine Aldehyde Dihydrochloride] (H-[dPip]-[ξAze]-Arg-aldehyde), in data set [1], the “Kass Human Thrombin” value is 45 L/mol × 10^6. For the same compound, the “Percent Relative Activity (Index of Bioavailability)” value in [9] was determined as 32%.

In the case of `Cl.Cl.Cl.N=C(N)NCCC[C@@H](C=O)NC(=O)[C@@H]1CCCN1C(=O)C1CCCCC1N.O` (stereo partly drawn) [Example 22, 2-aminocyclohexylcarbonyl-L-Pro-L-Arginine Aldehyde Trihydrochloride Monohydrate], in data set [1], the “Kass Human Thrombin” value is listed as 39 L/mol × 10^6. Further, the “Percent Relative Activity (Index of Bioavailability)” value in [9] is reported as 15%.

`Cl.Cl.N=C(N)NCCC[C@@H](C=O)NC(=O)[C@@H]1CCCN1C(=O)C1CNCCN1` (stereo partly drawn) [Example 9, D,L-Piperazin-2-yl-L-Prolinyl-L-Arginine Aldehyde Dihydrochloride]: the “Kass Human Thrombin” value in data set [1] amounted to 121 L/mol × 10^6. For the same compound, in data set [9], the “Percent Relative Activity (Index of Bioavailability)” value came to 19%.

For `CNC(CC(=O)N1CCC[C@H]1C(=O)N[C@H](C=O)CCCNC(=N)N)C1CCCCC1.CNC(CC(=O)N1CCC[C@H]1C(=O)N[C@H](C=O)CCCNC(=N)N)C1CCCCC1.Cl.Cl.Cl.Cl.O` (stereo partly drawn) [Example 16, N-methyl-3-amino-3-cyclohexyl propionyl-L-Pro-L-Arg aldehyde dihydrochloride hemihydrate], the “Kass Human Thrombin” value in data set [1] was determined as 85 L/mol × 10^6. Also, the “Percent Relative Activity (Index of Bioavailability)” value in [9] is given as 19%.

`CNC(CC(=O)N1CCC[C@H]1C(=O)N[C@H](C=O)CCCNC(=N)N)c1ccccc1.Cl.Cl.O.O` (stereo partly drawn) [Example 15, N-methyl-3-amino-3-phenylpropionyl-L-Prolinyl-L-Arginine Aldehyde Dihydrochloride Dihydrate]: the “Kass Human Thrombin” value in data set [1] is given as 70 L/mol × 10^6. Besides, the “Percent Relative Activity (Index of Bioavailability)” value in data set [9] was determined as 28%.

Regarding `Cl.Cl.N=C(N)NCCC[C@@H](C=O)NC(=O)[C@@H]1CCCN1C(=O)C1NCCS1` (stereo partly drawn) [Example 10, D,L-Thiazolidinyl-2-carbonyl-L-prolinyl-L-arginine aldehyde dihydrochloride], the “Kass Human Thrombin” value in data set [1] amounted to 27 L/mol × 10^6. In addition, the “Percent Relative Activity (Index of Bioavailability)” value in data set [9] is listed as 5%.

`CNCC(Cc1ccccc1)C(=O)N1CCC[C@H]1C(=O)N[C@H](C=O)CCCNC(=N)N.Cl.Cl.O` (stereo partly drawn) [Example 17, N-Methyl-3-amino-2-benzylpropionyl-L-Pro-L-Arg Aldehyde Dihydrochloride Monohydrate]: in [1], the “Kass Human Thrombin” value turned out to be 12 L/mol × 10^6. The “Percent Relative Activity (Index of Bioavailability)” value in data set [9] is 8%.

Consider “N-methyl-D-Phg-Pro-Arg-H.H2 SO4 [79 (Step A)]”, for which the “Kass Human Thrombin” value in data set [1] was 236 L/mol × 10^6. The “Kass Trypsin” value in [3] is on record as 87 L/mol × 10^6. In addition, the “Kass Plasmin” value in data set [4] turned out to be 1.3 L/mol × 10^6. Further, in data set [5], the “Kass t-PA” value came to 0.01 L/mol × 10^6. Further, in [9], the “Percent Relative Activity (Index of Bioavailability)” value is 18%.
